Assay results from PMC8217170, “Phase Ib dose-escalation study of the hypoxia-modifier Myo-inositol trispyrophosphate in patients with hepatopancreatobiliary tumors” (Nature Communications, 2021).
Several values for one entry are separate records, joined by “and”; a condition that tells them apart may be missing. Equal entries are not always repeated.

Test: Plasma levels and pharmacokinetics of intravenous ITPP
[1] = individual patients, cohort 1 (1866 mg/m2)
[2] = individual patients, cohort 2 (3732 mg/m2)

SMILES: O=P1(O)OC2C3OP(=O)(O)OP(=O)(O)OC3C3OP(=O)(O)OP(=O)(O)OC3C2OP(=O)(O)O1 (centres unmarked) [ITPP, Myo-inositol trispyrophosphate]
- ITPP plasma levels: Concentration (cohort 2, patient 7, day 2, hour 0, sample 8_2_1): 0 µg/mL
- ITPP plasma levels, Concentration (cohort 2, patient 7, day 2, hour 9): 98.6 µg/mL
- ITPP plasma levels, Concentration (cohort 2, patient 7, day 3, hour 0): 0 µg/mL
- ITPP plasma levels, Concentration (cohort 2, patient 7, day 3, hour 9): 93.7 µg/mL
- AUC (cohort 3, 5600 mg/m2): 1168.7 µg·h/mL
- AUMC (cohort 3, 5600 mg/m2): 6445.9 h2*mg/L
- CL (cohort 3, 5600 mg/m2): 4.4 L/h
- Clast (cohort 3, 5600 mg/m2): 59.5 µg/mL
- Cmax (cohort 3, 5600 mg/m2): 153.4 µg/mL
- Cmin (cohort 3, 5600 mg/m2): 0 ng/mL
- Elimination rate λz (cohort 3, 5600 mg/m2): 0.5 h⁻¹
- Half life/T0.5 (cohort 3, 5600 mg/m2): 1.4 h
- MRT (cohort 3, 5600 mg/m2): 1.5 h
- Tlast (cohort 3, 5600 mg/m2): 10.0 h
- Tmax (cohort 3, 5600 mg/m2): 6.0 h
- VSS (cohort 3, 5600 mg/m2): 9.2 L
- AUC (cohort 4, 7000 mg/m2): 1649.5 µg·h/mL
- AUMC (cohort 4, 7000 mg/m2): 9421.8 h2*mg/L
- CL (cohort 4, 7000 mg/m2): 3.1 L/h
- Clast (cohort 4, 7000 mg/m2): 127.5 µg/mL
- Cmax (cohort 4, 7000 mg/m2): 228.0 µg/mL
- Cmin (cohort 4, 7000 mg/m2): 0 ng/mL
- Elimination rate λz (cohort 4, 7000 mg/m2): 0.2 h⁻¹
- Half life/T0.5 (cohort 4, 7000 mg/m2): 3.3 h
- MRT (cohort 4, 7000 mg/m2): 1.7 h
- Tlast (cohort 4, 7000 mg/m2): 10.0 h
- Tmax (cohort 4, 7000 mg/m2): 6.0 h
- VSS (cohort 4, 7000 mg/m2): 12.8 L
- AUC (cohort 5, 8750 mg/m2): 1850.5 µg·h/mL
- AUMC (cohort 5, 8750 mg/m2): 10396.4 h2*mg/L
- CL (cohort 5, 8750 mg/m2): 4.0 L/h
- Clast (cohort 5, 8750 mg/m2): 116.8 µg/mL
- Cmax (cohort 5, 8750 mg/m2): 257.8 µg/mL
- Cmin (cohort 5, 8750 mg/m2): 0 ng/mL
- Elimination rate λz (cohort 5, 8750 mg/m2): 0.3 h⁻¹
- Half life/T0.5 (cohort 5, 8750 mg/m2): 2.1 h
- MRT (cohort 5, 8750 mg/m2): 1.6 h
- Tlast (cohort 5, 8750 mg/m2): 10.0 h
- Tmax (cohort 5, 8750 mg/m2): 6.0 h
- VSS (cohort 5, 8750 mg/m2): 11.1 L
- AUC (cohort 6, 10500 mg/m2): 2439.2 µg·h/mL
- AUMC (cohort 6, 10500 mg/m2): 13886.7 h2*mg/L
- CL (cohort 6, 10500 mg/m2): 3.3 L/h
- Clast (cohort 6, 10500 mg/m2): 186.4 µg/mL
- Cmax (cohort 6, 10500 mg/m2): 313.4 µg/mL
- Cmin (cohort 6, 10500 mg/m2): 0 ng/mL
- Elimination rate λz (cohort 6, 10500 mg/m2): 0.3 h⁻¹
- Half life/T0.5 (cohort 6, 10500 mg/m2): 2.6 h
- MRT (cohort 6, 10500 mg/m2): 1.7 h
- Tlast (cohort 6, 10500 mg/m2): 10.0 h
- Tmax (cohort 6, 10500 mg/m2): 6.0 h
- VSS (cohort 6, 10500 mg/m2): 11.7 L
- AUC (cohort 7, 12390 mg/m2): 2457.2 µg·h/mL
- AUMC (cohort 7, 12390 mg/m2): 14095.2 h2*mg/L
- CL (cohort 7, 12390 mg/m2): 4.4 L/h
- Clast (cohort 7, 12390 mg/m2): 149.4 µg/mL
- Cmax (cohort 7, 12390 mg/m2): 353.6 µg/mL
- Cmin (cohort 7, 12390 mg/m2): 0 ng/mL
- Elimination rate λz (cohort 7, 12390 mg/m2): 0.4 h⁻¹
- Half life/T0.5 (cohort 7, 12390 mg/m2): 1.7 h
- MRT (cohort 7, 12390 mg/m2): 1.7 h
- Tlast (cohort 7, 12390 mg/m2): 10.0 h
- Tmax (cohort 7, 12390 mg/m2): 6.0 h
- VSS (cohort 7, 12390 mg/m2): 11.4 L
- AUC (cohort 8, 14500 mg/m2): 2864.1 µg·h/mL
- AUMC (cohort 8, 14500 mg/m2): 16280.4 h2*mg/L
- CL (cohort 8, 14500 mg/m2): 4.4 L/h
- Clast (cohort 8, 14500 mg/m2): 166.0 µg/mL
- Cmax (cohort 8, 14500 mg/m2): 439.2 µg/mL
- Cmin (cohort 8, 14500 mg/m2): 0 ng/mL
- Elimination rate λz (cohort 8, 14500 mg/m2): 0.4 h⁻¹
- Half life/T0.5 (cohort 8, 14500 mg/m2): 1.8 h
- MRT (cohort 8, 14500 mg/m2): 1.7 h
- Tlast (cohort 8, 14500 mg/m2): 10.0 h
- Tmax (cohort 8, 14500 mg/m2): 6.0 h
- VSS (cohort 8, 14500 mg/m2): 11.4 L
- AUCTmax [1]: 338.2 µg·h/mL and 372.1 µg·h/mL and 311.3 µg·h/mL and 349.1 µg·h/mL
- AUC∞ [1]: 366.8 µg·h/mL
- AUC∞ / Dose [1]: 0.2 mg·h/L/mg
- AUMCTmax [1]: 1863.8 h2*mg/L and 2050.4 h2*mg/L and 1825.7 h2*mg/L and 1904.2 h2*mg/L
- AUMC∞ [1]: 2201.9 h2*mg/L
- CLO [1]: 5.1 L/h
- Clast [1]: 15.7 µg/mL and 46.6 µg/mL and 22.8 µg/mL and 33.9 µg/mL
- Cmax [1]: 45.8 µg/mL and 54.7 µg/mL and 55.3 µg/mL and 42.2 µg/mL
- Cmax / Dose [1]: 0.0 mg/L/mg
- Cmin [1]: 0 ng/mL
- Elimination rate λz [1]: 0.5 h⁻¹
- Half-life / T0.5 [1]: 1.3 h
- MRTTmax [1]: 1.5 h (3×) and 1.9 h
- MRT∞ [1]: 2.0 h
- Tlast [1]: 10 h (3×) and 9 h
- Tmax [1]: 6.0 h (3×) and 8.5 h
- VSSO [1]: 10.2 L
- VZO [1]: 9.3 L
- AUCTmax [2]: 745.9 µg·h/mL and 761.5 µg·h/mL and 1032.3 µg·h/mL
- AUC∞ [2]: 826.4 µg·h/mL and 896.6 µg·h/mL and 1215.3 µg·h/mL
- AUC∞ / Dose [2]: 0.2 h*mg/L/mg (2×) and 0.3 h*mg/L/mg
- AUMCTmax [2]: 4278.4 h2*mg/L and 4442.2 h2*mg/L and 6030.7 h2*mg/L
- AUMC∞ [2]: 5242.1 h2*mg/L and 6142.5 h2*mg/L and 8341.9 h2*mg/L
- CLO [2]: 4.5 L/h and 4.2 L/h and 3.1 L/h
- Clast [2]: 40.6 µg/mL and 52.1 µg/mL and 69.7 µg/mL
- Cmax [2]: 106.3 µg/mL and 106.7 µg/mL and 148.7 µg/mL
- Cmax / Dose [2]: 0.0 mg/L/mg
- Cmin [2]: 0 ng/mL
- Elimination rate λz [2]: 0.5 /h and 0.4 /h (2×)
- Half-life / T0.5 [2]: 1.4 h and 1.8 h (2×)
- MRTTmax [2]: 1.7 h and 1.8 h (2×)
- MRT∞ [2]: 2.3 h and 2.9 h (2×)
- Tlast [2]: 10 h
- Tmax [2]: 6.0 h
